Results from patent US12358948B2, “Neurotensinergic agonists and methods of using same preventing or treating pain” (priority 2019, dated 2025).
“And” between values parts separate entries of the source, which are not always exact repeats. Identical values can stand only once. Where a SMILES comes first, the peptide text is derived from it. Bridges are numbered along the chain shown (N, C = ends). [ ]: non-standard residue; d: D form. Ala(cPent) = N[C@@H](CC1CCCC1)C(=O)O; AllylGly = C=CC[C@H](N)C(=O)O

What was measured:
Sprague-Dawley rats [1] = experiment: Tail-flick test (acute thermal pain), intrathecal injection; format: in vivo, rat; conditions: for ED50, tail-flick test: from % MPE at 10 min post-injection, rat; for tail-flick latency time compared to saline injection: i.t. 10 to 150 μg/kg (compound 34) or 3 to 61 nmol/kg (compound 67); for % MPE: 10 min post-injection
Protocol: (§1) Rats were housed two per cage on Aspen shavings in a quiet room and kept on a 12 h light/dark cycle and allowed ad libitum access to food and water. The experimental procedures in this study were approved by the Animal Care Committee of Université de Sherbrooke and were in accordance with policies and directives of the Canadian Council on Animal Care.
Tail-flick test: The tail flick test was used as outcome measures heat-induced pain in animals and as indicators of a compound's analgesic efficacy.
Acute pain was assessed using the Tail flick test (Tail Flick Analgesia meterV2.00, Colombus Instruments, Columbus, Ohio, USA). Tail flick test measures sensitivity to a high-intensity light beam focused on the rat tail. The tail flick apparatus was set at a light intensity of 6 and a cutoff of 10 seconds. The latency to flick the tail out of the path of the light beam corresponds to the measure of pain sensitivity or analgesia.
Before testing, animals were individually acclimatized to manipulations and behavioral apparatus 5 min/day for three consecutive days. On the test day, latencies baseline measures were taken before drug injection to provide a mean baseline. The compounds were diluted in 0.9% saline at the desired dose. The effects of the compound or saline on thermal nociception were assessed every 10 min for up to 60 min following i.t. administration.
Moreover, tail flick latencies were converted into the percent maximal possible effect (% MPE) at the time of maximal peak of analgesia. % MPE were calculated according to the following formula: % MPE=[(Test latency)−(Saline latency)]/[(Cutoff)−(Saline latency)]×100. Data are expressed as mean±SEM of 5-8 animals for each dose.
Then, ED50 values were determined using the dose-response stimulation log(agonist) vs response (four parameters).
Data are expressed as mean±standard errors of the mean (SEM). All graphs and statistical analysis were performed using GraphPad Prism™ 7 (GraphPad software, La Jolla, CA, USA). […] A two-way ANOVA followed by Tukey's multiple comparisons test was used to determine the significant differences in changes in body temperature between different concentrations of compounds and saline (FIG. 9). The % MPE for the tail-flick test and the areas under the curve for the formalin test were analyzed using a one-way ANOVA followed by a Dunnett's multiple comparisons test to compare different concentrations of compounds and saline treatment (FIGS. 2B, 4B, 7A-B and 8B-D). […] Nonlinear regression using three parameters was performed for % of ileum relaxation and IC50 value was obtained from the resulting dose-response curve (FIG. 11). A difference in response was considered significant with p-values *p<0.05, **p<0.01, ***p<0.001 and **p<0.0001.

Sprague-Dawley rats [2] = experiment: Formalin test (tonic pain model), intrathecal injection; format: in vivo, rat
Protocol: as §1, with “Experiments were performed with adults male Sprague-Dawley rats, weighing 225-300 g (Charles River laboratories, St Constant, Canada). Rats” for “Rats”
Rats were lightly anesthetized with isoflurane/oxygen (Baxter corporation, Mississauga, ON, Canada; 2 L/min) flow and injected intrathecally at the L5-L6 intervertebral space with concentrations ranging from 10 to 150 μg/kg of compound 34, 30 μg/kg of PD149163 or 61 nmol/kg of compounds 60, 67, 91 and 116 diluted in 0.9% saline or 0.9% saline alone.
Formalin test: The analgesic effect of compound 34 was assessed using the formalin test as a model of persistent pain. Before testing, animals were acclimatized to manipulations and to plexiglass chambers 30 min/day for three consecutive days. On test day, 5 minutes after intrathecal injection of compounds at increasing doses ranging from 30 to 150 μg/kg (FIGS. 7A-B) or 3 to 60 μg/kg (FIGS. 8A-D), the rats received a 50 μl of diluted 1.85% formaldehyde (i.e. 5% formalin; Bioshop, Burlington, Ontario) into the plantar surface of the right hind paw. […] The intraplantar injection of formalin produced the biphasic nociceptive response typical of this tonic pain model (Tjolsen et al., 1992). […] Nociceptive behavior was assessed using a weighted score as described previously (Dubuisson and Dennis 1977; Codere, 1993). […] The weighted average pain intensity score ranging from 0 to 3 was then calculated by multiplying the time spent in each category by the category weight, summing these products, and dividing by the total time in a given time interval. The pain score was thus calculated from the following formula (1T1+2T2+3T3)/180 where T1, T2, and T3 are the durations (in seconds) spent in behavioral categories 1, 2, or 3, respectively, during each 180 second block. The Area Under the Curve (AUC) was calculated during all the duration of the test (0-60 min). […]
Data are expressed as mean±standard errors of the mean (SEM). […] The % MPE for the tail-flick test and the areas under the curve for the formalin test were analyzed using a one-way ANOVA followed by a Dunnett's multiple comparisons test to compare different concentrations of compounds and saline treatment (FIGS. 2B, 4B, 7A-B and 8B-D). […]

Row | Compound | tail-flick latency at the lowest dose (Sprague-Dawley rats [1]; 10 μg/kg i.t. (data not shown)) | ED50, tail-flick test (Sprague-Dawley rats [1]; i.t.) | tail-flick latency time compared to saline injection (Sprague-Dawley rats [1]) | % MPE (Sprague-Dawley rats [1]; tail-flick, two higher doses i.t.) | dose at which analgesic effect / MPE reached a plateau (Sprague-Dawley rats [1]; tail-flick, i.t.) | time spent in lifting (Sprague-Dawley rats [2]; acute phase, from 60 μg/kg i.t.) | time spent in lifting (Sprague-Dawley rats [2]; inflammatory phase, from 90 μg/kg i.t.) | latency of the tail-flick reflex compared to baseline (Sprague-Dawley rats [1]; 61 nmol/kg i.t.) | tail-flick latency at low doses (Sprague-Dawley rats [1]; doses inferior to 3 nmol/kg i.t. (data not shown)) | antinociceptive effect compared with the other tested compounds (Sprague-Dawley rats [1]; equimolar doses (61 nmol/kg i.t.)) | MPE plateau at the tested doses (Sprague-Dawley rats [1]; tail-flick, 3 to 61 nmol/kg i.t.) | % MPE (Sprague-Dawley rats [1]; tail-flick, highest dose i.t.) | ED50, formalin test (Sprague-Dawley rats [2]; AUC of pain score, acute and inflammatory phases combined, i.t.) [nmol/kg] | pain score (Sprague-Dawley rats [2]; all tested doses (from 10 nmol/kg) i.t.)
1 | CC(C)C[C@H](NC(=O)[C@H](Cc1ccc(O)cc1)NC(=O)[C@@H]1CC=CC[C@H](N)C(=O)N[C@@H](CCCCN)C(=O)N[C@@H](CCCCN)C(=O)N1)C(=O)O [compound 34, c[G(All)KKG(All)]YL] (H-[AllylGly]KK[AllylGly]YL-OH; staple 1-4) | no apparent increase in latency | 48.52 μg/kg and 61 nmol/kg | significantly increased | at least 98% | around 90 μg/kg | significantly decreased | significantly decreased |  |  |  |  |  |  | 
2 | NCCCC[C@@H]1NC(=O)[C@H](CCCCN)NC(=O)[C@@H](N)CC=CC[C@@H](C(=O)N[C@@H](Cc2ccc(O)cc2)C(=O)N[C@@H](CC2CCCC2)C(=O)O)NC1=O [compound 67, c[G(All)KKG(All)]YA(cyclopentyl)] (H-[AllylGly]KK[AllylGly]Y[Ala(cPent)]-OH; staple 1-4) |  | 8.14 nmol/kg | significantly increased |  |  |  |  | sustainably increased latency | no apparent increase in latency | highest antinociceptive effect | did not reach a plateau | at least 91% | 30 | significantly decreased
